One data set concerns the target T1, S1R (Homo sapiens, UniProt Q99720).
T1 construct: For the S1R assay, Jurkat cell membranes (10–20 μg protein/tube) were incubated at 37 °C for 2 h; host or cells: Jurkat cell membranes
The experiment in a line: S1R competitive radioligand binding, [3H](+)-pentazocine, Jurkat cell membranes. The settings on record: for IC50: [3H]-(+)-pentazocine displacement, n = 2; for Ki (S2R)/ Ki (S1R): selectivity ratio S2R/S1R. The text has this:
S1R and S2R affinities were classically evaluated through competitive binding assays using radioligands, following the protocol described by Ganapathy et al.. The selective radioligand [^3H] (+)-pentazocine was employed as the classic prototypical ligand, selectively binding to the orthosteric S1R-binding sites. […] Jurkat cell membranes served as the receptor source in both assays. The equilibrium dissociation constants (Ki) for S1R and S2R were derived from the IC50 values of each compound, and selectivity ratios (S2R/S1R) were subsequently calculated (Table 1, Figures S2 and S3).
Binding assays were performed by Eurofins Cerep (Poitiers, France) according to the protocol of Ganapathy. […] For the S2R assay, Jurkat cell membranes (10–20 μg protein/tube) were incubated at room temperature for 1 h in the same buffer with [^3H]-DTG (25 nM) in the presence of (+)-pentazocine (1 μM) to saturate S1R, along with a range of test compound concentrations. Bound radioactivity was quantified by liquid scintillation counting. Nonspecific binding was determined under identical conditions in the presence of 10 μM unlabeled haloperidol. The IC50 values (concentration causing a half-maximal inhibition of control-specific binding) and Hill coefficients (nH) were determined by non-linear regression analysis of the competition curves generated with mean replicate values using Hill equation curve-fitting. This analysis was performed using software developed at Cerep (Hill software) and validated by comparison with data generated by the commercial software SigmaPlot ®4.0 for Windows® (©1997 by SPSS Inc.). Inhibition constants (Ki) were calculated from IC50 values using the method of Cheng and Prusoff.

Data set [1] can be described thus: Solubility, shake-flask method, HPLC-UV/VIS. Type of data set: physicochemical. The note with it: thermodynamic from solid, n = 2. Here is the method: (§1) Solubility and stability remained unchanged in simulated gastric fluid (SGF) and simulated intestinal fluid (SIF), which mimic gastrointestinal digestion. Intestinal permeability was assessed using a two-chamber system with apical (A, pH 6.5) and basolateral (B, pH 7.4) compartments, representing the luminal and blood/mesenteric lymph sides of the gastrointestinal tract, respectively. […] The efflux ratios for both compounds ranged between 1 and 2, indicating improved permeability relative to the reference compound 1.
(§2) Standardized in vitro ADME experiments were performed by Eurofins Cerep (Poitiers, France). Solubility assays were performed in PBS at pH 7.4, but also in simulated gastric fluid (SGF) and intestinal fluid (SIF), through the classical shake-flask method described by Lipinski et al., using HPLC-UV/VIS technology. The results were expressed in µM. The compound was classically evaluated at 10 µM for all of the ADME analyses. Bidirectional permeability (apical A to basolateral B pH 6.5/7.4, and basolateral B to apical A pH 7.4/6.5) was assessed in the epithelial colorectal adenocarcinoma cell line (Caco-2 cell line). The results were expressed as ×10^−6 cm/s (Papp) and as % recovery. The efflux ratio, i.e., Papp (B→A)/Papp(A→B), was calculated. Plasma protein binding was analyzed by HPLC-MS/MS after 4 h of incubation at 37 °C, as described by Banker et al.. Concentration was evaluated by LC/MS-MS. CYP inhibition was performed in human liver microsomes as described in [28]. Analysis of the respective metabolites was performed by HPLC-MS/MS. Transporter inhibition analysis was also performed in overexpressing cell lines. Respective metabolites for each specific transporter substrate were analyzed by fluorometry or scintillation counting, and % inhibition of control values were calculated. P-glycoprotein transporter substrate assessment was performed by bidirectional permeability analysis (apical A to basolateral B pH 7.4/7.4, and basolateral B to apical A pH 7.4/7.4) in the Caco-2 cell line with and without verapamil, as described in [26]. The results were expressed as ×10^−6 cm/s (Papp) and as % recovery. The efflux ratio was calculated as Papp(B→A)/Papp(A→B). CYP450 induction was assessed in human hepatocytes by measuring the mRNA levels of seven CYP isoforms via qPCR, as described in [40]. The compound was tested at 1, 10, and 100 μM, and fold-induction values were compared with predefined cut-off thresholds for each isoform and hepatocyte lot.

The next data set in a line: Plasma protein binding. The settings on record: n = 2. Type of data set: in vitro ADME. Here is the method: as §1
Standardized in vitro ADME experiments were performed by Eurofins Cerep (Poitiers, France). […] The compound was classically evaluated at 10 µM for all of the ADME analyses. Bidirectional permeability (apical A to basolateral B pH 6.5/7.4, and basolateral B to apical A pH 7.4/6.5) was assessed in the epithelial colorectal adenocarcinoma cell line (Caco-2 cell line). The results were expressed as ×10^−6 cm/s (Papp) and as % recovery. The efflux ratio, i.e., Papp (B→A)/Papp(A→B), was calculated. Plasma protein binding was analyzed by HPLC-MS/MS after 4 h of incubation at 37 °C, as described by Banker et al.. Concentration was evaluated by LC/MS-MS. […] Respective metabolites for each specific transporter substrate were analyzed by fluorometry or scintillation counting, and % inhibition of control values were calculated. […] The efflux ratio was calculated as Papp(B→A)/Papp(A→B). […]

The subject of a further data set is CYP1A. The experiment in a line: CYP inhibition in human liver microsomes. Type of data set: in vitro ADME. The settings on record: n = 2, read-out: CYP inhibition 1A. The protocol: (§3) Microsomal stability was evaluated using human liver microsomes at 10 µM (Table 3). […] Since cytochrome P450 (CYP) enzymes—especially families 1 to 3—play major roles in drug metabolism, CYP inhibition was tested against the human isoforms CYP1A, 2B6, 2C8, 2C9, 2C19, 2D6, and 3A, as recommended by FDA and EMA guidelines. […] Membrane transport proteins, including the ATP-binding cassette (ABC) and solute carrier (SLC) families, affect drug pharmacokinetics and potential drug–drug interactions. The inhibitory effects of compounds 2 and 6 were assessed against five ABC transporters (P-gp, BCRP, MRP1, MRP2, and MRP3) and seven SLC transporters (OAT1, OAT3, OATP1B1, OCT1, OCT2, ASBT, and NTCP).
as §2

For the next data set, the target named is T2, CYP2B6 (Homo sapiens, UniProt P20813).
T2 construct: tissue Eurofins Cerep (assay provider); host or cells: human liver microsomes
The experiment in a line: CYP inhibition in human liver microsomes. Format: in vitro ADME. The note with it: n = 2, read-out: CYP inhibition 2B6. The protocol: as §3, §2
(Liver microsomes are a subcellular fraction often used to study metabolism.)

The target of the next data set is T3, CYP2C19 (Homo sapiens, UniProt P33261).
T3 construct: tissue Eurofins Cerep (assay provider); host or cells: human liver microsomes
The experiment in a line: CYP inhibition in human liver microsomes. Format: in vitro ADME. The note with it: n = 2, read-out: CYP inhibition 2C19. Here is the method: as §3, §2

The target of another data set is T4, CYP2C8 (Homo sapiens, UniProt P10632).
T4 construct: tissue Eurofins Cerep (assay provider); host or cells: human liver microsomes
The experiment in a line: CYP inhibition in human liver microsomes. Type of data set: in vitro ADME. The note with it: n = 2, read-out: CYP inhibition 2C8. The protocol: as §3, §2

Another data set concerns the target T5, CYP2C9 (Homo sapiens, UniProt P11712).
T5 construct: tissue Eurofins Cerep (assay provider); host or cells: human liver microsomes
The experiment in a line: CYP inhibition in human liver microsomes. Format: in vitro ADME. The settings on record: n = 2, read-out: CYP inhibition 2C9. The protocol: as §3, §2

The target of another data set is T6, CYP2D6 (Homo sapiens, UniProt P10635).
T6 construct: tissue Eurofins Cerep (assay provider); host or cells: human liver microsomes
The experiment in a line: CYP inhibition in human liver microsomes. Format: in vitro ADME. The note with it: n = 2, read-out: CYP inhibition 2D6. Here is the method: as §3, §2

For another data set, the system named is CYP3A. The experiment in a line: CYP inhibition in human liver microsomes. Type of data set: in vitro ADME. The settings on record: n = 2, read-out: CYP inhibition 3A. The protocol:
as §3, §2

Setting [2] is: aqueous buffer, PBS pH 7.4, read-out: Solubility PBSpH7.4.
Where [3] appears, read: simulated gastric fluid (SGF), simulated gastric fluid, read-out: Solubility SGF.
[4] abbreviates: simulated intestinal fluid (SIF), fassgf or other biorelevant, simulated intestinal fluid, read-out: Solubility SIF.

Values after ≈ are worked out from the molar mass of the structure shown. Read-outs that look alike come from different tables or passages of the source.

T1 sequence (Q99720 whole entry): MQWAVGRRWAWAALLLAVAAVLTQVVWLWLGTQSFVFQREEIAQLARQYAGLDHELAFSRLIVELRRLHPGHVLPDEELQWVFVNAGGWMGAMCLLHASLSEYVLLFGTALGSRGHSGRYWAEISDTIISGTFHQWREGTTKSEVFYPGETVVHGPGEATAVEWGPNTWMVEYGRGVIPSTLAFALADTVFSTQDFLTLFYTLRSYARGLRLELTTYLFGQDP
T3 sequence (P33261 whole entry): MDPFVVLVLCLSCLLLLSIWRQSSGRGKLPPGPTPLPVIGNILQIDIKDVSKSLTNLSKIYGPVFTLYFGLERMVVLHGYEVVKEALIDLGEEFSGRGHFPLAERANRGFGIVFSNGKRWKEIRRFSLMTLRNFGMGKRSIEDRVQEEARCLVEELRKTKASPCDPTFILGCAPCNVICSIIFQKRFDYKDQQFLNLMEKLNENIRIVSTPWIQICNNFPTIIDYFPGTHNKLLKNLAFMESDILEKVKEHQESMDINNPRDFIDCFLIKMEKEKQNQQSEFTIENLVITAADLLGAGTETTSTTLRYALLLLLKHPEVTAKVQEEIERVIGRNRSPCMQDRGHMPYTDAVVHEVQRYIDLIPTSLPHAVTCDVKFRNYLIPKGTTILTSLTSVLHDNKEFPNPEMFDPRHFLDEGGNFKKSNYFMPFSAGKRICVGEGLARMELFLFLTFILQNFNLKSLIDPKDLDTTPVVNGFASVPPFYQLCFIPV
T5 sequence (P11712 whole entry): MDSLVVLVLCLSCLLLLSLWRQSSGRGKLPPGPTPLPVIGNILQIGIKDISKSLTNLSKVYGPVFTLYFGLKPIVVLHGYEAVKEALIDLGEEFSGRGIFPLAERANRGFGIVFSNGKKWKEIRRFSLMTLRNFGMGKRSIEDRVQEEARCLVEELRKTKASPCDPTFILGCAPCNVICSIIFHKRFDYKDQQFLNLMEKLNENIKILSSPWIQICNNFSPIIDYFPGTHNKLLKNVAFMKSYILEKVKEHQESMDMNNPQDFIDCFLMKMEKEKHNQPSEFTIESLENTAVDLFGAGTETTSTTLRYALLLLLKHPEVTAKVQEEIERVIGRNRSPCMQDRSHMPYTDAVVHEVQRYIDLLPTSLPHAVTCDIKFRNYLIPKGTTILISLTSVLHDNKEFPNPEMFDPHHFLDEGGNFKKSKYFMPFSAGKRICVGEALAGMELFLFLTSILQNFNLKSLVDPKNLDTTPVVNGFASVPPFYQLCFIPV
T2 sequence (P20813 whole entry): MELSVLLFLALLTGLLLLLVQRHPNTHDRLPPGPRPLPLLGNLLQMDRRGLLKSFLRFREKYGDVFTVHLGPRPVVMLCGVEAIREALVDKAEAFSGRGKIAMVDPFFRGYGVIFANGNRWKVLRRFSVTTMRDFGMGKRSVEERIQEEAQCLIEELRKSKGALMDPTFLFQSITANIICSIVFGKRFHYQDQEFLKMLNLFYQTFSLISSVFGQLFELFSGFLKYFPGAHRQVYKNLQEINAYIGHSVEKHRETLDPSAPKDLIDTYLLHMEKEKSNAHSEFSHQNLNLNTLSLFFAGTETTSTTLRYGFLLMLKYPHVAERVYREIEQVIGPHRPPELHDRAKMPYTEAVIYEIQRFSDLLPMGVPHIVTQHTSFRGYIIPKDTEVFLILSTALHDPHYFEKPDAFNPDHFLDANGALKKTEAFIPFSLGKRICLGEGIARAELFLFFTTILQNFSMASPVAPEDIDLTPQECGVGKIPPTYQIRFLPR
T6 sequence (P10635 whole entry): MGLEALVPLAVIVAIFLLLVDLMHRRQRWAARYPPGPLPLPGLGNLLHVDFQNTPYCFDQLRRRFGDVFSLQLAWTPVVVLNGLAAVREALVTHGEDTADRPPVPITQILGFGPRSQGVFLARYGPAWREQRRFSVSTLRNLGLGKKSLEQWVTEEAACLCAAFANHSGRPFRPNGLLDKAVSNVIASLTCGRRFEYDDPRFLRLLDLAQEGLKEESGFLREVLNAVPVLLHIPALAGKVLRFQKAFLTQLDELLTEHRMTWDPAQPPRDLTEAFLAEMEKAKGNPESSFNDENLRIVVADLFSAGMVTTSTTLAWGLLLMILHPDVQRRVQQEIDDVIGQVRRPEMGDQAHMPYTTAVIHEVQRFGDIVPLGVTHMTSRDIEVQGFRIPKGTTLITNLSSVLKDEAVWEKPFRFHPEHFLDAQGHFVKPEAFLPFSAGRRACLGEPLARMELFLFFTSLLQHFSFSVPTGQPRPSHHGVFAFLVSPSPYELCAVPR
T4 sequence (P10632 whole entry): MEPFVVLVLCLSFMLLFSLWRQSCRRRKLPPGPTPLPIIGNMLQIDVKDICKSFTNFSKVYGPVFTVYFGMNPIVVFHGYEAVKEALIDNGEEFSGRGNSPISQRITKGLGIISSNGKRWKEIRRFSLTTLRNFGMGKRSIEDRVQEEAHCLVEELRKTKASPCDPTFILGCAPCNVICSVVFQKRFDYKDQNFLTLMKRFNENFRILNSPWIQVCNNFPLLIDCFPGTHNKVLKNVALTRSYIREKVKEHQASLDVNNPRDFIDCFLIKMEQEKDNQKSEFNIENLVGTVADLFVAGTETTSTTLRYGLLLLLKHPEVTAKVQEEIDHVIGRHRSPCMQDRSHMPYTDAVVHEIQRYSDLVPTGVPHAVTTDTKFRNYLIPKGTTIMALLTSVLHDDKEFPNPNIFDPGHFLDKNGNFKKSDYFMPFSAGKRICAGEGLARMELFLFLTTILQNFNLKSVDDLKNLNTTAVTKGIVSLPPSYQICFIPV

`CN(CCC(=O)NCc1ccc(C#N)cc1)Cc1ccccc1` [Compound 6, 3-(Benzylmethylamino)-N-(4-cyanobenzyl)propanamide] displayed an IC50 on S1R (Jurkat cell membranes) of 11 nM. On S1R, the “Ki (S2R)/ Ki (S1R)” value was found to be 331. In addition, the solubility in [1] (setting [2]) is 190 µM (≈ 58.4 µg/mL); in data set [1] (setting [3]), 178 µM (≈ 54.7 µg/mL); in [1] (setting [4]) it was 190 µM (≈ 58.4 µg/mL). The same compound gave a fraction unbound at 4 h, 10 µM in “Plasma protein binding” of 0.37. Further, the inhibition at 10 µM is 13.2% in the data set on CYP1A; 17.7% at CYP2B6; 30% at CYP2C19; -12.1% on CYP2C8; 10% on CYP2C9; 87.7% on CYP2D6. Further, in the data set with CYP3A, the inhibition at 10 µM came to 17.4%.
At S1R ([3H](+)-pentazocine, Jurkat cell membranes, mean of 2–3 independent experiments), `CN(CCC(=O)NCc1cccc(Cl)c1)Cc1ccccc1` [Compound 2, 3-(Benzylmethylamino)-N-(3-chlorobenzyl)propanamide] showed a Ki of 0.6 nM. On S1R (Jurkat cell membranes), this compound returned an IC50 of 1.2 nM. Besides, the “Ki (S2R)/ Ki (S1R)” value on S1R is recorded as 317. Further, the solubility in data set [1] (setting [2]) was 167 µM (≈ 52.9 µg/mL); in data set [1] (setting [3]), 186 µM (≈ 58.9 µg/mL); in data set [1] (setting [4]), 181 µM (≈ 57.3 µg/mL). Further, in the data set “Plasma protein binding”, the fraction unbound at 4 h, 10 µM was 0.02. The inhibition at 10 µM in the data set with CYP1A was 23.3%; on CYP2B6, 16.9%; on CYP2C19, 43.9%; on CYP2C8, -16.8%; at CYP2C9, 13.1%; at CYP2D6, 80.5%. In the data set on CYP3A, the inhibition at 10 µM came out at 30.9%.

As usually defined, the IC50 is the concentration that gives 50% inhibition. A high value points to weaker potency. What is called solubility is the dissolved amount per volume that the medium holds. In general, fraction unbound refers to the share of the substance not bound to proteins or other matrix. Higher therefore signals weak binding. By inhibition is commonly meant the change of the read-out against control, counted positive when it falls. The Ki is the dissociation constant of the complex between target and ligand, obtained from inhibition or displacement.

(Values after paper PMC12430443, “Discovery of Novel Benzamide-Based Sigma-1 Receptor Agonists with Enhanced Selectivity and Safety” (Molecules, 2025).)
